{
  "source": "patent US20170340693A1",
  "about": "“DISLODGEMENT AND RELEASE OF HSC USING ALPHA 9 INTEGRIN ANTAGONIST AND CXCR4 ANTAGONIST” (COMMONWEALTH SCIENTIFIC AND INDUSTRIAL RESEARCH ORGANISATION, priority 2014, published 2017)",
  "key": {"[1]": {"tested_on": "progenitors (LSK) and HSC (LSKSLAM) in peripheral blood", "assay": "HSC mobilization to peripheral blood in mice", "format": "in vivo", "description": "(§1) For mobilization experiments, all mice received subcutaneous injections at 100 μl/10 gm body weight and PB was harvested by throat bleed using EDTA coated syringes.\n(a) R-BC154 (IXb) and BOP. Mice received a single injection of freshly prepared solutions of R-BC154 (IXb) and BOP in saline at the doses indicated before PB was harvested by throat bleed at the times indicated.\n(b) G-CSF. Mice received G-CSF at 250 μg/kg twice daily (500 ug/kg/day), 6-8 hours apart for 4 consecutive days. Groups receiving G-CSF and BOP received the standard G-CSF regime as described above followed by a single injection of BOP 1 h prior to harvest. Control mice received an equal volume of saline.\n(§2) Mice received subcutaneous injections at 100 μl/10 gm body weight of a single injection of BOP (up to 15 mg/kg) for various timeframes, a single BIO5192 injection at 1 mg/kg for 1 hour, a single AMD3100 injection at 3 mg/kg for 1 hour (mice also receiving BOP or BIO15192 were injected with a single dose of BOP or BIO15192 1 hour prior to harvest), or G-CSF at 250 μg/kg twice daily (500 μg/kg/day), 6-8 hours apart for 4 consecutive days (mice also receiving BOP and/or AMD3100 were injected with a single dose of BOP and/or AMD3100 1 h prior to harvest). Control mice received an equivalent volume of saline or 10% HPβCD/saline where appropriate."}, "[2]": {"tested_on": "WBC in peripheral blood", "assay": "PB white blood cell / lymphocyte content after mobilization", "format": "in vivo, mice", "conditions": "for WBC counts: peripheral blood after administration", "description": "as §1, §2"}, "[3]": {"tested_on": "human WBC and human CD34+ stem and progenitors", "assay": "Mobilization of humanised NSG (huNSG) mice", "format": "in vivo", "conditions": "single dose, G-CSF multiple doses for 4-days", "source_text": "Humanised NSG mice were generated by tail vein injection of freshly sorted cord blood CD34^+ cells (>150 k) with 2×10^6 irradiated mononuclear support cells. After 4-weeks post-transplantation, NSG mice were eyebled and assessed for huCD45 and muCD45. Under these conditions, >90% humanisation was achieved as determined by flow cytometric analysis based on % huCD45 relative to total % CD45. Humanised NSG mice were given at least 1 week to recover prior to experimentation. Mice were mobilized under the relevant conditions specified in “Mobilization protocols” and PB subsequently collected by throatbleed, lysed and immunolabelled as described in “Antibody cocktails”.\nas §2"}, "[4]": {"tested_on": "LPP-CFC and HPP-CFC", "assay": "Low- and high-proliferative potential colony-forming cell assays of mobilized PB", "design": "species or system mice", "conditions": "mouse, in vivo", "description": "Low- and high-proliferative potential colony-forming cells (LPP-CFC and HPP-CFC, respectively) were assayed as previously described in J. Grassinger et al Cytokine, 2012, 58, 218-225 and Bartelmez, S. H. et al Experimental hematology 17, 240-245 (1989). Briefly, mobilized PB were lysed and 4000 WBCs were plated in 35 mm Petri dishes in a double-layer nutrient agar culture system containing recombinant mouse stem cell factor and recombinant human colony-stimulating factor-1, interleukin-1α (IL-1α), and IL-3. Cultures were incubated at 37° C. in a humidified incubator at 5% O2, 10% CO2, 85% N2. LPP-CFC and HPP-CFC were enumerated at 14 days of incubation as previously described in J. Grassinger, et al (2012)."}, "[5]": {"molecular_target": "T1, α9β1 (Homo sapiens, UniProt P05556+Q13797)", "T1 construct": "expressed in transfected cells; host or cells: LN18 (ATCC CRL-2610), retrovirally transduced; endogenous α4 silenced with pSM2c-shITGA4", "T1 sequence (Q13797 30-1035)": "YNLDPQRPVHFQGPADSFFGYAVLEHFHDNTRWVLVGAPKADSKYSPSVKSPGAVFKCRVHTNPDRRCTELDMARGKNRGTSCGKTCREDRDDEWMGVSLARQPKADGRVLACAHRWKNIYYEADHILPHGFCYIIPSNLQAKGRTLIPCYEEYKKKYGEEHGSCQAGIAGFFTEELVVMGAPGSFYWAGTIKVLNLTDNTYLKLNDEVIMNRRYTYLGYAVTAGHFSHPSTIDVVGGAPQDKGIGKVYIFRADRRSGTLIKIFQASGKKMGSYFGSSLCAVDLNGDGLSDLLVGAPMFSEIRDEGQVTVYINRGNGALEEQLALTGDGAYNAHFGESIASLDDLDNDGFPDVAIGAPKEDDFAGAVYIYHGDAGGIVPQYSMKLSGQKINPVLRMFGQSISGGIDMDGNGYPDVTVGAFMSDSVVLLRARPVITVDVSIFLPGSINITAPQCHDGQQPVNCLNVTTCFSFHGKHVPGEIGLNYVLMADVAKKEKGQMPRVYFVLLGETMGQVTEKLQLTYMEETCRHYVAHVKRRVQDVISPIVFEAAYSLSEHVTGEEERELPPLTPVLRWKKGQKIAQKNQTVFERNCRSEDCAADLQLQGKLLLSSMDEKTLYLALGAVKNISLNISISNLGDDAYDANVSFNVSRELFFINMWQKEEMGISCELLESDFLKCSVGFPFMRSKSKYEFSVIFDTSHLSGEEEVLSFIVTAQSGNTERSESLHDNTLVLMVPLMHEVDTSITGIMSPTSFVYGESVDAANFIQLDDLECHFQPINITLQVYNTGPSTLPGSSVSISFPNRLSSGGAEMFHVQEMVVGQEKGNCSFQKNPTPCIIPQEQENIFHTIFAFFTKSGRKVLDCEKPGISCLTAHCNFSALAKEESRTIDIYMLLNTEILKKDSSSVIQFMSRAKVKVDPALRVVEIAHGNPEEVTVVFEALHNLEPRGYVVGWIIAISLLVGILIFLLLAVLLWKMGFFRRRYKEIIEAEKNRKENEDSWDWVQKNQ", "T1 sequence (P05556 21-798)": "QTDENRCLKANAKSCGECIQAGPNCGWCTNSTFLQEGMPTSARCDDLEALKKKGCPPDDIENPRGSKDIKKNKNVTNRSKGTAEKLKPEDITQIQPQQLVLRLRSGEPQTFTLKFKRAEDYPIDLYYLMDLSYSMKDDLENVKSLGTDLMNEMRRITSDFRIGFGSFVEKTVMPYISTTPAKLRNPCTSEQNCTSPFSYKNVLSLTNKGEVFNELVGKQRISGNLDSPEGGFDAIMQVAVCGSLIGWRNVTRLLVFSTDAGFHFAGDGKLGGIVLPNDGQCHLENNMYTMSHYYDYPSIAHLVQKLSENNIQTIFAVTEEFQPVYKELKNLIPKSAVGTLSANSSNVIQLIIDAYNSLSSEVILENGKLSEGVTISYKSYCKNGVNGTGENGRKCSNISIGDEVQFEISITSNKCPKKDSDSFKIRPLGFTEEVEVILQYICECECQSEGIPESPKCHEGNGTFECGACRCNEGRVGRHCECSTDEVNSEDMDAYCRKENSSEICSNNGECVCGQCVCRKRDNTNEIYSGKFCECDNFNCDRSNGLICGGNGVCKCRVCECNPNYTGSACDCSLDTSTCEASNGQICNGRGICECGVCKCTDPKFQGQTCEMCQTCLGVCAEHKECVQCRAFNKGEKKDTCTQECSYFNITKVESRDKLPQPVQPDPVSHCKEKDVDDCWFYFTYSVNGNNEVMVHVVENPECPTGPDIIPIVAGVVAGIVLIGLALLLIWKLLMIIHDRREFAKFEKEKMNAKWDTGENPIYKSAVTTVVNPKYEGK", "assay": "Inhibition of R-BC154 (IXb) binding, transduced LN18 cells and CHO cells, flow cytometry", "design": "species or system human and murine", "conditions": "R-BC154 100 nM, antagonist 1 μM, 1 mM CaCl2MgCl2, 0° C. 30 min", "description": "(§3) For the assessment of α9β1 contribution to R-BC154 (IXb) binding, human and murine cells were stained with R-BC154 (100 nM) in the absence of competing antagonist or in the presence of excess amounts of the selective α4β1 antagonist BIO5192 (1 μM) or dual α4β1/α9β1 antagonist BOP (1 μM) in PBS containing 0.5% BSA and 1 mM CaCl2MgCl2 at 0° C. for 30 min. Cells were washed, immunolabelled as described above and analysed by flow cytometry. The contribution of α9β1 binding was calculated by measuring the difference in MFI between R-BC154 (IXb)+BIO5192 and +BOP and expressed as a % of R-BC154 (IXb) alone."}, "[6]": {"molecular_target": "α4β1 (Homo sapiens, UniProt P05556+P13612)", "sequence (P13612 34-1032)": "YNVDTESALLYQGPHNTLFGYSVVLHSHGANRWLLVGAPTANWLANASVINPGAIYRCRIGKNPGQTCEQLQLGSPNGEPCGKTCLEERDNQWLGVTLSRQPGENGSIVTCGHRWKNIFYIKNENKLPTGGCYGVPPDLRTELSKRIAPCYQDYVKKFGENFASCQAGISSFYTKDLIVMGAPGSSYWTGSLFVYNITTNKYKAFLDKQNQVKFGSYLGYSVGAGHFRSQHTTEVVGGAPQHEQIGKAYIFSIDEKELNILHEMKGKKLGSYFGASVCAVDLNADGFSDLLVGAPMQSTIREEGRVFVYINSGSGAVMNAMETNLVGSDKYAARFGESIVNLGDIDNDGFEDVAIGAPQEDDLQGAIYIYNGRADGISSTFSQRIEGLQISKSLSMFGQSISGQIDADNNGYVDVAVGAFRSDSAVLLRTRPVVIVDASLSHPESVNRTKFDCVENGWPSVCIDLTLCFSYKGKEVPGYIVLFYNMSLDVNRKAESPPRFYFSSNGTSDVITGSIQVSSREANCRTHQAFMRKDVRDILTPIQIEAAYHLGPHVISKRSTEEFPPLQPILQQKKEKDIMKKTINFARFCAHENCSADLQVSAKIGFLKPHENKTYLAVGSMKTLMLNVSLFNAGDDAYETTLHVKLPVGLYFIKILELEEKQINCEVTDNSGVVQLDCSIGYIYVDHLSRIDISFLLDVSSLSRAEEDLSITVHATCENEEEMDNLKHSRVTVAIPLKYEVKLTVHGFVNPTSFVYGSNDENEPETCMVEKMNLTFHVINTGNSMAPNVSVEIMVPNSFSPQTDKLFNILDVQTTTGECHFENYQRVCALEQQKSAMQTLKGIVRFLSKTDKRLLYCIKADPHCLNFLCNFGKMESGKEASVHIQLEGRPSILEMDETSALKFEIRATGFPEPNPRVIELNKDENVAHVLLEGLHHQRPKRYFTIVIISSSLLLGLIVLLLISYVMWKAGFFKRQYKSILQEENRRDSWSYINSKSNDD", "sequence (P05556 21-798)": "as the sequence (P05556 21-798) above", "conditions": "cited from earlier work"}, "[7]": {"tested_on": "cord blood (CB) mononuclear cells (MNC)", "assay": "R-BC154 (IXb) binding to cord blood mononuclear cell populations, flow cytometry", "format": "cell-based, human", "conditions": "R-BC154 (100 nM) in the presence of excess selective α4β1 antagonist BIO5192 (1 μM) or dual α4β1/α9β1 antagonist BOP (1 μM)", "description": "For in vitro labelling experiments, 5×10^6 BM cells from C57 mice, conditional α4^−/−/α9^−/− mice and humanised NODSCIDIL2Rγ^−/− mice and human cord blood MNCs were treated with R-BC154 (IXb) (up to 300 nM) in PBS (0.5% BSA) or TBS (0.5% BSA) containing either 1 mM CaCl2/MgCl2 (activating) or 10 mM EDTA (deactivating) at 40×10^6 cells/ml for 20 mins at 4° C. Cells were washed with cold PBS (2% FBS) and then immunolabelled as described in “Antibody Cocktails” prior to flow cytometric analysis. For in vivo experiments, C57BL/6 mice, α4^−/−/α9^−/− vav-cre mice and humanised NODSCIDIL2Rγ^−/− mice received either intravenous or subcutaneous injections of R-BC154 (IXb) (5-10 mg/kg) at 100 ul/10 gm mouse weight and analysed as described above.\nas §3"}, "[8]": {"tested_on": "α4β1 or α9β1 LN18 cells", "conditions": "Pepinsky et al (2002); cited from earlier work"}, "[9]": {"tested_on": "endosteal LSK", "assay": "In vivo BOP binding to endosteal versus central progenitors", "design": "species or system mice", "conditions": "mouse", "from_the_text": "Data is pooled from two independent experiments. n>6 (e) Analysis of in vivo BOP binding to endosteal versus central progenitors (LSK) and HSC (LSKSLAM) following the administration of BOP alone or BOP in combination with AMD3100. […] P<0.05"}, "[10]": {"molecular_target": "α4β1 integrin (Homo sapiens, UniProt P05556+P13612)", "sequence (P13612 34-1032)": "as the sequence (P13612 34-1032) above", "sequence (P05556 21-798)": "as the sequence (P05556 21-798) above", "assay": "Inhibition of integrin binding to VCAM-1 and Opn in vitro"}, "[11]": {"molecular_target": "α9β1 integrin (Homo sapiens, UniProt P05556+Q13797)", "sequence (Q13797 30-1035)": "as the sequence (Q13797 30-1035) above", "sequence (P05556 21-798)": "as the sequence (P05556 21-798) above", "assay": "Inhibition of integrin binding to VCAM-1 and Opn in vitro"}},
  "note": "Where a name gives a salt, the structure may show the parent alone.",
  "data": [
    {"molecule": "c1cc(CN2CCCNCCNCCCNCC2)ccc1CN1CCCNCCNCCCNCC1", "note": "[AMD3100, I,r-[I,4-Phenylenebis(methylene)]bis [1,4,8,11-tetraazacyclotetradecane]octohydrobromide dehydrate, reference compound]", "values": [
      {"measurement": "increase in the proportion of progenitors (LSK cells) in the PB relative to BOP", "setting": "[1]; mouse, in vivo", "value": "comparable increases"},
      {"measurement": "WBC counts", "setting": "[2]", "value": "7.8±1.5 ×10^6/ml"},
      {"measurement": "increase in PB human WBC or human CD34 stem and progenitors", "setting": "[3]", "value": "did not result in a significant increase"},
      {"measurement": "HPP-CFC content of mobilized PB relative to the saline control", "setting": "[4]", "value": "greater"},
      {"measurement": "LPP-CFC content of mobilized PB relative to the saline control", "setting": "[4]", "value": "greater"}
    ]},
    {"molecule": "Cc1ccccc1NC(=O)Nc1ccc(CC(=O)N(C)[C@@H](CC(C)C)C(=O)NCC[C@H](NC(=O)[C@@H]2CCCN2S(=O)(=O)c2cc(Cl)cc(Cl)c2)C(=O)O)cc1", "note": "[BIO5192, reference compound]", "values": [
      {"measurement": "increases in WBC counts, progenitors (LSK) and HSC (LSKSLAM) in the PB", "setting": "[1]; Intravenous administration, alone", "value": "moderate increases"},
      {"measurement": "inhibition of R-BC154 (IXb) binding to α9β1", "setting": "[5]", "value": "did not inhibit"},
      {"measurement": "Kd", "setting": "[6]", "value": "< 0.01", "unit": "nM"},
      {"measurement": "inhibition of R-BC154 (IXb) binding to CB HSC and progenitors", "setting": "[7]", "value": "partial inhibition"},
      {"measurement": "inhibition of R-BC154 (IXb) binding to CB lineage committed cells", "setting": "[7]", "value": "complete inhibition"}
    ]},
    {"molecule": "O=C(O)[C@H](Cc1ccc(OC(=O)N2CCCC2)cc1)NC(=O)[C@@H]1CCCN1S(=O)(=O)c1ccccc1", "note": "[BOP, N-(Benzenesulfonyl)-L-prolyl-L-O-(1-pyrrolidinylcarbonyl)tyrosine]", "values": [
      {"measurement": "time of peak PB HSC", "setting": "[1]; mouse, in vivo", "value": 1, "unit": "h"},
      {"measurement": "increase in the proportion of HSC (LSKSLAM cells) in the PB relative to AMD3100", "setting": "[1]; p<0.05", "value": "significantly greater increase"},
      {"measurement": "increase in PB progenitors (LSK) and HSC (LSKSLAM)", "setting": "[1]; single agent, single dose", "value": "rapid, significant and dose dependent increase"},
      {"measurement": "return of PB progenitors and HSC to baseline post-administration", "setting": "[1]; single dose", "value": "≤ 4", "unit": "h"},
      {"measurement": "time of peak PB progenitors and HSC after a single dose", "setting": "[1]; subcutaneous", "value": 60, "unit": "min"},
      {"measurement": "WBC counts", "setting": "[2]", "value": "7.0±0.8 ×10^6/ml"},
      {"measurement": "total PB lymphocytes decreased to baseline", "setting": "[2]; single dose", "value": "≤ 18", "unit": "h"},
      {"measurement": "inhibition of R-BC154 (IXb) binding to α9β1", "setting": "[5]", "value": "> 95", "unit": "%"},
      {"measurement": "off-rates for α9β1 compared to α4β1", "setting": "[8]", "value": "significantly reduced off-rates"},
      {"measurement": "increase in PB human WBC or human CD34 stem and progenitors", "setting": "[3]", "value": "did not result in a significant increase"},
      {"measurement": "binding of BOP to endosteal LSK relative to their central counterparts in vivo", "setting": "[9]", "value": "significantly greater binding of BOP"},
      {"measurement": "inhibitory potency, α4β1 binding to VCAM-1 and Opn", "setting": "[10]", "value": "nanomolar inhibitory potencies"},
      {"measurement": "HPP-CFC content of mobilized PB relative to the saline control", "setting": "[4]", "value": "greater"},
      {"measurement": "LPP-CFC content of mobilized PB relative to the saline control", "setting": "[4]", "value": "greater"},
      {"measurement": "inhibition of R-BC154 (IXb) binding to all CB cell populations", "setting": "[7]", "value": "complete inhibition"},
      {"measurement": "inhibitory potency, α9β1 binding to VCAM-1 and Opn", "setting": "[11]", "value": "nanomolar inhibitory potencies"}
    ]},
    {"molecule": "G-CSF: recombinant granulocyte-colony stimulating factor (protein, UniProt P09919 31-207, looked up) Granulocyte …: TPLGPASSLPQSFLLKCLEQVRKIQGDGAALQEKLVSECATYKLCHPEELVLLGHSLGIPWAPLSSCPSQALQLAGCLSQLHSGLFLYQGLLQALEGISPELGPTLDTLQLDVADFATTIWQQMEELGMAPALQPTQGAMPAFASAFQRRAGGVLVASHLQSFLEVSYRVLRHLAQP", "values": [
      {"measurement": "progenitors mobilized, G-CSF alone versus single dose of BOP and AMD3100", "setting": "[1]; 4-days of G-CSF", "value": "significantly greater number of progenitors"},
      {"measurement": "increase in PB human WBC or human CD34 stem and progenitors", "setting": "[3]", "value": "did not result in a significant increase"}
    ]}
  ]
}
